Experimental data from patent US5690906A (The Trustees of the University of Pennsylvania, priority 1995, dated 1997).
Where two headings read alike, the source gives them in different places.

Key:
[1] = biological target: D3 receptors (expressed in Sf9 cells) (Rattus norvegicus, UniProt P19020); conditions: for Hill Co.: Table 3, [^125 I]trans-7-OH-PIPAT competition; for Hill Co. / Ki: 37° C., 120 mM NaCl; for affinity for the D3 receptor: competition with [^125 I]trans-7-OH-PIPAT; for Ki: ± SE, [^125 I]trans-7-OH-PIPAT 0.1-0.2 nM
Sequence of D3 receptors (expressed in Sf9 cells) (P19020 whole entry): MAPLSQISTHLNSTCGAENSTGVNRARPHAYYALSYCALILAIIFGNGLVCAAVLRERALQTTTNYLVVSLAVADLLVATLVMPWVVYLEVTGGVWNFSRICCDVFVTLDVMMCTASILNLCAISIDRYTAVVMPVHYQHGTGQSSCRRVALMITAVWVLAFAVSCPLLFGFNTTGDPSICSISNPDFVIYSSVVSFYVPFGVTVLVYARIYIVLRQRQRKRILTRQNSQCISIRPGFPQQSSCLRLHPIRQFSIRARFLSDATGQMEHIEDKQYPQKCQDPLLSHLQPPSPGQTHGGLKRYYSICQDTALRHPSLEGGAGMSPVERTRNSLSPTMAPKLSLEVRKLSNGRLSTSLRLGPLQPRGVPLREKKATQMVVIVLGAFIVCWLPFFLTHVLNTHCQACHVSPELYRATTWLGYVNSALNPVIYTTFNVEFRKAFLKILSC
Experimental: Plasmid DNA was isolated by alkaline dialysis and purified by CsCl density gradient centrifugation and overnight dialysis for transfection of Sf9 cells. […] A monolayer of Sf9 cells (approximately 2×10^6 cells/T25 plate) was cotransfected by calcium phosphate precipitation, with 1 mg of AcMNPV DNA (provided by Dr. Max Summers, Texas A&M University, College Station, Tex.) and 2 mg of recombinant transfer vector DNA. […] Putative recombinant viral plaques were chosen by visual screening for occlusion-negative plaques and used to infect 1×10^6 Sf9 cells in a 6-well plate (CoStar, Cambridge, Mass.). Four days after infection, cells were harvested and membranes were prepared. An aliquot of membranes was used for radioligand binding. […] The membrane homogenates of AcMNPVrD3 infected Sf9 cells were prepared as described. Briefly, the harvested cells were centrifuged, resuspended and homogenized in buffer containing 50 mM Tris, pH7.4, 150mM NaCl, 10 mM EDTA and a mixture of protease inhibitors (1 mg/ml aprotinin, 1 mg/ml leupeptin, 1 mg/ml soybean trypsin inhibitor, 10 mg/ml PMSF). The final pellets obtained were resuspended in the same buffer and kept at -20° C. for radioligand binding assays.
Binding assays were performed in glass tubes (12×75 mm) in a final volume of 0.2 ml. The buffer used for the dilution contained 50 mM Tris, pH 7.4, and the protease inhibitors mixture. […] The competition experiments were performed in the presence of 120 mM NaCl. […] After incubation for 30 min at 37° C. or 90 min at 25° C., the bound ligand was separated from the free ligand by filtration through glass fiber filters No. 25 (Schleicher & Schuell, Keene, N.H.) soaked with 0.2% protamine free base. The filters were then washed twice with 4 ml of ice-cold buffer (containing 50 mM Tris-HCl, pH 7.4) and the radioactivity on the filters was counted in a gamma counter (Packard 5000) with 70% efficiency.

D2 dopamine receptor = biological target: T1, D2 dopamine receptor (Rattus norvegicus, UniProt P61169); assay: Inhibition of [^125 I]NCQ298 binding to D2 dopamine receptors expressed in Sf9 cells; conditions: for HC D2: Table 4, Hill coefficient
T1 construct: made in house; host or cells: Sf9 insect cells infected with recombinant baculovirus (AcMNPVrD2L or AcMNPVrD2S), membrane homogenates
T1 sequence (P61169 whole entry): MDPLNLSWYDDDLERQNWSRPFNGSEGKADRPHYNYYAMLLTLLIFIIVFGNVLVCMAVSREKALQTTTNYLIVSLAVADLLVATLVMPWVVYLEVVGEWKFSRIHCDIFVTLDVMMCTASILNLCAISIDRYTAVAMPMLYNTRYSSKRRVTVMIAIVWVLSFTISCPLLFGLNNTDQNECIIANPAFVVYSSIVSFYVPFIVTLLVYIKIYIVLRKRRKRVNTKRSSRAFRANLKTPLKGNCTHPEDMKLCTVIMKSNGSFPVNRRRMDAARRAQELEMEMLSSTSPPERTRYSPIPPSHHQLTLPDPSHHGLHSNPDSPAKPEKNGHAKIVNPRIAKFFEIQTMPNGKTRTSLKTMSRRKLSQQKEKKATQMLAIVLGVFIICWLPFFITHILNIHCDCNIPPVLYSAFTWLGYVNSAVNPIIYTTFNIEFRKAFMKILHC

D3 dopamine receptor = biological target: T2, D3 dopamine receptor (Rattus norvegicus, UniProt P19020); assay: Inhibition of [^125 I]NCQ298 binding to D3 dopamine receptors expressed in Sf9 cells; conditions: for HC D3: Table 4, Hill coefficient; for Ratio D2/D3: Ki(D2)/Ki(D3)
T2 construct: made in house; host or cells: Sf9 insect cells infected with recombinant baculovirus AcMNPVrD3, membrane homogenates
T2 sequence (P19020 whole entry): as the sequence (P19020 whole entry) above
Experimental: The construction of pVL1393-rD3 was previously described. […] An aliquot of membranes was used for radioligand binding.
Membranes from AcMNPV-rD3 infected Sf9 cells were prepared. […] Assays were incubated at 37° C. for 20 min. then filtered and washed as described above.

5-HT1A receptor = biological target: T3, 5-HT1A receptor (Rattus norvegicus, UniProt P19327); assay: Inhibition of [^3 H]-8-OH-DPAT binding to rat hippocampal membrane homogenates; conditions: for Ki: against [^3 H]-8-OH-DPAT, rat hippocampus membranes, read-out: K1 (inhibition constant)
T3 construct: from tissue; host or cells: rat hippocampus membrane homogenates
T3 sequence (P19327 1-422): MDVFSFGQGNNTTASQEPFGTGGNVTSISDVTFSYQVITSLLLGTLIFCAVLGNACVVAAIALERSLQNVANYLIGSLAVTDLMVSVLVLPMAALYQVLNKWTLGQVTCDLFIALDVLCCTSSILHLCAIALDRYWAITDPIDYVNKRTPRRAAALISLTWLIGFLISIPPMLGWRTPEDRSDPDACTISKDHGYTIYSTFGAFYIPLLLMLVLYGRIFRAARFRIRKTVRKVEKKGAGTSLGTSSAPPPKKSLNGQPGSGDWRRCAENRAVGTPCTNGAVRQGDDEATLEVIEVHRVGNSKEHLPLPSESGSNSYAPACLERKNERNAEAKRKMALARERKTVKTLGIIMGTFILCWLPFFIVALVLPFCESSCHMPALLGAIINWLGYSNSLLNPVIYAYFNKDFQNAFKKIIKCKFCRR
Experimental: The hippocampal homogenates were prepared in 100 volumes of ice-cold Tris-HCl buffer (50mM, pH 7.4) and centrifuged at 20,000 g for 20 minutes. […] The final pellets were resuspended in the Tris-buffer containing 2mM of MgCl2. […] The tubes were incubated at 37° C. for fifteen minutes and then terminated by vacuum filtration through glass filters (Schleicher & Schuell, No. 25, Keene, N.H.) soaked with 1% polyethylimine. […] Both Scatchard and competition experiments were analyzed using the iterative least-squarecurve fitting program LIGAND.

[2] = Stability of the radiolabelled product on storage (HPLC); assay type: physicochemical
Experimental: Hydrogen peroxide ([…]) was added to a mixture of […] (1mg/ml EtOH), […] and I-125 (2-3 mCi) in a sealed vial. The reaction was allowed to proceed for 20 min at room temperature, and was then terminated by addition of 0.1 ml of sodium bisulfite (300 mg/ml). The reaction mixture was extracted with ethyl acetate (3×1 ml) after neutralization with saturated NaHCO3 solution. The extracted ethyl acetate layers were evaporated to dryness, and the remaining residue was dissolved in EtOH and purified by HPLC using a reverse phase column (PRP-1 column, Hamilton Co., Reno, Nev.) eluted with an isocratic solvent of 80% acetonitrile-20% pH 7.0 buffer (5 mM 3,3'-dimethylglutaric acid). The fractions containing the desired product were collected, condensed and re-extracted with ethyl acetate (3×1 ml). The no-carrier-added final product (purity >98%) was evaporated to dryness and redissolved in […] with 100 mg ascorbic acid added as an anti-oxidant.
No-carrier-added [^125 I ]trans-8-OH-PIPAT(^125 I]8) was prepared by an iododestannylation reaction similar to the procedure reported previously (Acta. Chim. Scan., 1988, B42, 231-236). Hydrogen peroxide (50 μl 3% w/v) was added to a mixture of 50 μl of tributyltin precursor, 11 (11 mg/ml EtOH), 50 μl of 1N HCl and I-125 (2-3 mCi) in a sealed vial. The reaction was allowed to proceed for 20 minutes at room temperature, and was then terminated by addition of 0.1 ml of sodium bisulfite (300 mg/ml). The reaction mixture was extracted with ethyl acetate (3×1 ml) after neutralization with saturated NaHCO3 solution. The extracted ethyl acetate layers were evaporated to dryness, and the remaining residue was dissolved in EtOH and purified by HPCL using a reverse phase column (PRP-1 column, Hamilton Co., Reno, Nev.) eluted with an isocratic solvent of 80% acetonitrile-20% pH 7.0 buffer (5 mM 3,3'-dimethylglutaric acid); the retention time was 9 minutes (1 ml/min). The fractions containing the desired product were collected, condensed and re-extracted with ethyl acetate (3×1 ml). The final product of no-carrier-added (purity>98%) was evaporated to dryness and redissolved in 100 μl of 50% EtOH with 100 μg of ascorbic acid added as an anti-oxidant. The final product [^125 I] trans-8-OH-PIPAT(^125 I]8) was stored at -20° C.

dopamine D2L receptor = assay: Specific binding of [^125 I]trans-7-OH-PIPAT to D2L receptors expressed in Sf9 cells; parameters: species or system rat; conditions: data not shown
dopamine D2S receptor = assay: Specific binding of [^125 I]trans-7-OH-PIPAT to D2S receptors expressed in Sf9 cells; parameters: species or system rat; conditions: data not shown
[3] = Table 4 and its discussion, [^125 I]-NCQ298 0.05 nM, 37° C., 20 min, read-out: Ki D2
[4] = Table 4 and its discussion, [^125 I]-NCQ298 0.1 nM, 37° C., 20 min, read-out: Ki D3

## CN1CCc2cc(Cl)c(O)cc2[C@@H](c2ccccc2)C1 [SCH23390]
[1]
  Hill Co.: 0.80
  affinity for the D3 receptor: moderate to low affinity

## CCCN(CCC)C1CCc2ccc(O)cc2C1 (stereo not drawn) [7-OH-DPAT, 7Hydroxy-2-N,N-n-Dipropylaminotetralin, reference compound]
[1]
  Hill Co.: 0.87
  affinity for the D3 receptor: high affinity
D2 dopamine receptor
  HC D2: 1.02
D3 dopamine receptor
  HC D3: 0.85

## CCCN(C/C=C/I)C1CCc2cccc(O)c2C1 (mixture of isomers) [(±)trans-8-OH-PIPAT, trans-8-Hydroxy-2-[N-propyl-N-(3'-iodo-2'propenyl)] aminotetralin]
5-HT1A receptor
  affinity / selectivity for 5-HT1A: unique high affinity and selectivity toward serotonin 5-HT1A sites
  Ki: 0.92 ± 0.13 nM

## Oc1cccc2c1CC(NC/C=C/I)CC2 (racemic) [(±)trans-8-OH-IPAT, 8-Hydroxy-2-(N-3'-iodo-2'propenyl)aminotetralin]
5-HT1A receptor
  Ki: 10 ± 2 nM

## COC(=O)[C@@H]1[C@H]2C[C@H]3c4[nH]c5ccccc5c4CCN3C[C@@H]2CC[C@@H]1O [Yohimbine]
[1]
  Hill Co.: 0.97
  affinity for the D3 receptor: moderate to low affinity
  Ki: 2430 ± 146 nM

## COc1cccc2c1CC(NC/C=C/I)CC2 (racemic) [(±)trans-8-OMe-IPAT, 8-Methoxy-2-(N-3'-iodo-2'-propenyl) aminotetralin]
5-HT1A receptor
  Ki: 17 ± 2.2 nM

## CCCN(CCC)C1CCc2cccc(O)c2C1 (racemic) [8-OH-DPAT, 8-hydroxy-2-(di-n-propylamino)tetralin]
[1]
  Hill Co.: 0.78

## CCN1CCC[C@H]1CNC(=O)c1c(O)c(Cl)cc(Cl)c1OC [Raclopride]
[1]
  Hill Co.: 0.78
  Ki: 9.25 ± 2.3 nM

## C#CCN(CCC)C1CCc2ccc(O)cc2C1 (stereo not drawn) [7-OH-PPAT, 7Hydroxy-2-(-Propargyl-N-n-Propyl)-Aminotetralin]
D2 dopamine receptor
  affinity for the D2 receptor: three-fold less active than 7-OH-DPAT
  HC D2: 0.99
D2 dopamine receptor; [3]
  Ki: 378 ± 45 nM
D3 dopamine receptor
  Ki: 9.2 ± 0.6 nM
  affinity / selectivity for the D3 receptor: three-fold less active than 7-OH-DPAT
  HC D3: 0.80
D3 dopamine receptor; Table 4 and its discussion
  Ratio D2/D3: 41.1

## CCCN(C/C=C/I)C1CCc2cccc(OC)c2C1 (mixture of isomers) [(±)trans-8-OMe-PIPAT, trans-8-Methoxy-2-[N-propyl-N-(3'-iodo-2'propenyl)]aminotetralin]
5-HT1A receptor
  Ki: 12.6 ± 1.5 nM

## CCCN(CCC)C1CCc2ccc(OC)cc2C1 (stereo not drawn) [7-MeO-DPAT, 7Methoxy-2-N,N-n-Dipropylaminotetralin]
D2 dopamine receptor
  Ki: 2170 ± 216 nM
  HC D2: 0.95
D3 dopamine receptor
  Ki: 280 ± 36 nM
  HC D3: 0.98
D3 dopamine receptor; Table 4 and its discussion
  Ratio D2/D3: 7.7

## CCCN(C/C=C/I)C1CCc2ccc(OC)cc2C1 (stereo not drawn) [7-MeO-PIPAT, 7Methoxy-2-[N-3'-(1'-Iodo-1'E-Propenyl)-N-n-Propylamino]tetralin]
D2 dopamine receptor
  HC D2: 1.22
D2 dopamine receptor; [3]
  Ki: 1380 ± 193 nM
D3 dopamine receptor
  HC D3: 0.93
D3 dopamine receptor; Table 4 and its discussion
  Ratio D2/D3: 5.4
D3 dopamine receptor; [4]
  Ki: 257 ± 31 nM

## CCCN(C/C=C/[125I])C1CCc2ccc(O)cc2C1 (stereo not drawn) [[^125 I]trans-7-OH-PIPAT]
[2]
  stability of the product on storage: stable for at least four weeks
[2]; 50% etoh with ascorbic acid, 672 h
  purity after storage for at least four weeks: > 95%
Dopamine D2L receptor
  specific binding toward D2L: no specific binding
Dopamine D2S receptor
  specific binding toward D2S: no specific binding

## Oc1ccc2c(c1)CC(NCc1ccccc1)CC2 (stereo not drawn) [7-OH-BAT, 7Hydroxy-2-N-n-Benzylaminotetralin]
D2 dopamine receptor
  HC D2: 0.80
D2 dopamine receptor; [3]
  Ki: 1860 ± 261 nM
D3 dopamine receptor
  affinity / selectivity for the D3 receptor: lowest affinity for the D3 receptor
  HC D3: 1.00
D3 dopamine receptor; Table 4 and its discussion
  Ratio D2/D3: 4.8
D3 dopamine receptor; [4]
  Ki: 391 ± 47 nM

## NCCc1c[nH]c2ccc(O)cc12 [5-HT]
[1]
  Hill Co.: 0.90
  Ki: 2340 ± 420 nM

## CCCN(C/C=C/[125I])C1CCc2cccc(O)c2C1 (stereo not drawn) [[^125 I] trans-8-OH-PIPAT]
[2]; -20° C., analyzed by HPLC, 40320 min
  purity after storage for at least four weeks: 95%
[2]; stored at -20° C., 50% EtOH with ascorbic acid
  stability of the product on storage: stable for at least four weeks
